According to a melting point compilation (Tetko et al.; mined from patent text by program, amines drawn as free bases though some values may be those of a salt):

melting point	SMILES
98 to 99 °C	Cc1nccn1-c1nc(-c2ccc(Cl)cc2)c(CCCCO)s1
147 to 150 °C	CS(=O)(=O)Nc1cccc(Nc2nc(NCC3CCCCN3)c3nc[nH]c3n2)c1 (configuration not stated)
114 to 115 °C	ON=C1CCCCC1=Cc1ccccc1
173 to 175 °C	CC(C)c1ccc(OC(C)(Cc2ccc(OCCNC(=O)c3ccc(OCC(F)(F)C(F)F)nc3)cc2)C(=O)O)cc1 (configuration not stated)
257 to 258 °C	Cn1c(C(F)(F)F)cc(=O)n(-c2ccc(Cl)c(S(N)(=O)=O)c2)c1=O
160 to 163 °C	CC1=NN(c2ccc(C(=O)O)cc2)C(=O)C1Cc1ccc(-c2cc(C)c(C)cc2[N+](=O)[O-])o1 (configuration not stated)
179 to 180 °C	Cc1ccccc1C(=O)Nc1c(NC(=O)CCl)ccc2c1C(=O)c1ccccc1C2=O
179 to 180 °C	CCOCCOc1ccc(CN/C=C2\C(=O)NC(=O)c3ccc(Br)cc32)cc1O
218 to 220 °C	COc1cc(C#N)c2nc(-c3ccc(OC)c(F)c3)cc(O)c2c1
157 °C	CN(C)C(=O)c1cc2c(NCCc3ccccc3)ncnc2s1
230 to 231 °C	CC(=O)C1=C(C)CC2C3CCC4CC(O)CCC4(C)C3C(=O)CC12C (configuration not stated)
139 to 140 °C	CS(=O)(=O)c1ccc(-c2cc(C#N)sc2-c2ccc(F)cc2)cc1
87 to 88 °C	CC(=O)c1cc(CBr)cc(CBr)c1
215 to 217 °C	O=C1CCC(N2Cc3cc(CNC(=O)Nc4cccc(Cl)c4)ccc3C2=O)C(=O)N1 (configuration not stated)
270 °C	O=C(O)c1cc2cc(F)c(F)cc2o1
91 to 93 °C	CN1CCN(c2cccc3c2C[C@H](NC(=O)c2ccc(C(=O)C(F)(F)F)cc2)CC3)CC1
134 to 136 °C	CN(C)CCCN(c1ccccc1)c1ncccc1NC(=O)c1ccccc1[N+](=O)[O-]
300 °C	Cc1c2c(cc(=O)n1CC(C)O)CCC(c1ccccn1)C2 (configuration not stated)
78 to 80 °C	C1COCCN2CCOCCOCCN(CCO1)CCSCCSCC2
49 to 51 °C	CC(C)[C@H](CO)Cc1ccc(C(C)(C)C)cc1
250 to 252 °C	NC(=O)Nc1ccc2c(c1)C(=O)C1(CC1)O2
180 °C	COC(=O)C1=NNC(C)=C(C(=O)OC)C1c1ccc(C)cc1 (configuration not stated)
125 to 127 °C	O=C(OCCc1ccccn1)Oc1ccc([N+](=O)[O-])cc1
101 to 103 °C	O=C(CC(=O)c1ccc(C(F)(F)F)cc1[N+](=O)[O-])c1ccccc1
140 °C	Cc1ccc(S(=O)(=O)Nc2ccccc2O)cc1

melting point	SMILES
98 to 99 °C	CCO/C=C/C(=O)Nc1cccc(Cl)c1OC
122 to 123 °C	NC(=O)CNC(=O)c1cncc(-c2cccc3cc(Cc4cccc(C(F)(F)F)c4)sc23)c1
132 to 134 °C	CC1OC(O)(Cl)CC(NC(=O)C(F)(F)F)C1(O)OC(=O)C(F)(F)F (configuration not stated)
118 to 120 °C	O=C(O)/C=C/c1ccc(Oc2c(-c3ccccc3)c(CCC(F)(F)F)cc3cc(O)ccc23)cc1
36.5 to 37 °C	CCOC(=O)C(S)C(=S)Cc1ccc(Cl)cc1 (configuration not stated)
143 to 144 °C	CCCn1c(=O)c2nc(C(C)Cc3ccc(OCC(=O)NCCN)cc3)[nH]c2n(CCC)c1=O (configuration not stated)
220 to 221 °C	CCN(CC)c1ccc(Nc2nc(N)c(C(=O)c3ccc([N+](=O)[O-])cc3)s2)cc1
83 °C	CCCCCCCCCCCCCCCCCCNC(=O)OC(=O)CCCCCCCCCCC
87 to 93 °C	CN(C)CCCNC(=O)c1ccc(-c2nnc(CSCCCCOc3ccccc3)o2)cc1
177 to 178 °C	Cc1c(NC(=O)c2ccc(OCc3ccccc3)cc2)ccc2cc(CN3CCCC3)cnc12
160 to 164 °C	Cc1cc(-c2ccccc2)n2nc(N3CCN(Cc4ccccc4)CC3)c(C#N)c2n1
228 to 230 °C	C=C(Br)c1cc(O)cc2nc(-c3ccc(O)cc3)oc12
85 °C	CC(=O)OCC(C)(COC(C)=O)C(=O)O
89 to 91 °C	CCOC(=O)c1cnc(-c2ccccc2OCC(C)C)[nH]c1=O
89 to 92 °C	O=C(C=Cc1ccc(F)cc1)c1ccc(C(F)(F)F)cc1
108 to 110 °C	CC(C)(C)OC(=O)N[C@@H](Cc1ccccc1)C(=O)CCC(=O)O
86 to 87 °C	FC(F)(F)c1ccc2c(c1)ncn2-c1cccc(I)c1
156 to 158 °C	NC(=O)Cc1nc(C(=O)c2ccccc2)no1
348 to 350 °C	O=C(O)c1ccc(-c2nn(-c3ccccc3C(=O)O)c3ccc([N+](=O)[O-])cc23)cc1
149 to 151 °C	C[C@H](C(=O)O)n1ccn(-c2ccc(OCC(F)(F)C(F)F)cc2)c1=O
163 °C	CCCCCCCCCCCCCCCCCCOC(=O)N(N)C(=O)c1cc(O)ccc1O
309 °C	Cc1cc(-c2cc(C(F)(F)F)n3ncc(C(=O)Nc4nc(C)c(S(N)(=O)=O)s4)c3n2)ccc1C(F)(F)F
80 to 82 °C	OC1C(COCC(F)(F)F)OC(n2cnc3c(NC4CCOCC4)ncnc32)C1O (configuration not stated)
192 to 194 °C	C=CCN(CC=C)c1nc(NC(=O)c2ccc(Cl)cc2)n2oc(=O)nc2n1
160 to 161 °C	COC(=O)c1ccc(Nc2ccn(-c3ccccc3)n2)cc1

melting point	SMILES
171 to 172 °C	COCCOc1cc(/C=C/C(=O)O)n(Cc2ccc(Cl)cc2Cl)n1
109 to 111 °C	CCCCN(CCCC)C(=O)CCCC1(C(=O)NCCC)c2ccccc2-c2ccccc21
127 to 128 °C	COC(=O)c1nc(Cl)cc(Cl)c1N
105 to 107 °C	COCCN1CCN(CCc2ccc(Nc3ncc4c(n3)-c3ccccc3C(c3cccc(Br)c3)C4)cc2)CC1 (configuration not stated)
108 to 110 °C	CCNC(=S)Nc1cccc(C(=O)OCC)c1NCc1ccc(-c2ccccc2C#N)cc1
86 to 88 °C	Cc1ccc2sc(=O)[nH]c2c1
167 to 168 °C	COC(=O)Cc1ccc(NC(=O)Nc2ccccc2C)c(OC)c1
196 to 198 °C	CCSc1ccc(CC(=O)NC(NC(Cc2ccccc2C)=NC#N)C(C)(C)C)cc1 (configuration not stated)
225 to 227 °C	CCOC(=O)N1CCN(c2nc(C)nc3c2OCC(=O)N3CC(N)=O)CC1
196 to 198 °C	COC(=O)c1c(C)nn(-c2ccccn2)c1S(N)(=O)=O
302 °C	O=C1NC(N2CCCCCC2)=N/C1=C\c1c[nH]c2ncc(-c3ccccc3)cc12
> 300 °C	O=C(Nc1cccc(C(=O)O)c1)OCc1cn(-c2cc3cc(C(=O)O)c(=O)[nH]c3cc2[N+](=O)[O-])cn1
139 to 141 °C	OC(Cc1ccc(Cl)cc1Cl)n1ccnc1 (configuration not stated)
78 to 80 °C	CCOP(=O)(CCN(OCc1ccccc1)S(=O)(=O)c1ccc(C)cc1)OCC
133 to 134 °C	O=C(CCc1ccccc1)OCCOC(=O)NC1(C(=O)O)CC1
102 to 103 °C	Cc1nn(CCBr)c(=O)c2ccccc12
23.3 °C	CCCCc1ccc(-c2ccc(OC)cc2F)nc1
95 to 97 °C	O=C(O)CCC1CCCC2CCC(=O)NC12 (configuration not stated)
146 to 148 °C	O=C(O)C=CC(=O)NCCCCCCCCCCCCCCCCCCCC(=O)O
97 to 98 °C	CCN1C(=O)Cc2cc(C(=O)OC)ccc21
237 to 239 °C	CCNC(=O)NNC(=O)c1ccc(Cl)cc1
162 °C	COC(=O)C(NC(=O)Nc1ccc(C=NO)cc1)C(=O)OC
187 to 188 °C	COc1cc(C(=O)NS(=O)(=O)c2ccccc2C)ccc1Cn1ccc2ccc(CC(=O)NCC3CCCC3)cc21
101 to 104 °C	COC(=O)c1ccc2c(CCCNc3ccccn3)nn(C)c2c1
138 to 139 °C	CNc1[nH]c(-c2ccccc2)c(C)c1C#N

melting point	SMILES
85 °C	CCOC(=O)CNc1nccc(-c2ccccn2)n1
213 to 214 °C	CSN=C1C(=O)N2C(C(=O)OC(c3ccccc3)c3ccccc3)=C(CSc3nnnn3C)CSC12 (configuration not stated)
222 to 224 °C	O=C(/C=C/c1ccc(NC(=O)Cc2cccc3ccccc23)cc1)NO
149 to 150 °C	O=C(O)COc1ccc(SCc2ccc(OCc3ccc(Cl)cc3Cl)cc2)c2c1CCC2
128 to 129 °C	O=C(O)[C@H](Cc1ccc(C(F)(F)F)cc1)[C@@H](O)c1ccc(Oc2ccccc2)cc1 (racemic)
131 to 132 °C	O=S(=O)(Oc1ccc(OCc2ccc3ccccc3n2)cc1C1(c2ccccc2)CC2CCC1C2)C(F)(F)F (configuration not stated)
149 to 150 °C	CN(C(=O)c1ccc(Cl)c(Cl)c1)c1ccccc1CCC(=O)O
230 to 232 °C	N=C(NS(=O)(=O)C=Cc1ccc([N+](=O)[O-])cc1)c1cccc([N+](=O)[O-])c1
183 to 185 °C	O=C(O)COc1c(Br)cc(-c2ccc(-c3c(Cc4ccccc4)sc4ccccc34)cc2)cc1Br
> 200 °C	Cc1nc(N2CCc3nc(N)sc3CC2)c([N+](=O)[O-])c(=O)[nH]1
130 to 131 °C	COc1ccc2ccc(O)c([N+](=O)[O-])c2c1
> 300 °C	O=C(O)c1cc(C(=O)O)cc(N2C(=O)C=CC2=O)c1
> 250 °C	CC(=O)Nc1ccc2c(c1)C(=O)NC2=O
122 to 123 °C	COC(=O)c1[nH]c2c(C)ccc(Cl)c2c1C
97 to 100 °C	COC(=O)C(Cc1ccc(Cl)cc1Cl)=NO
93 to 96 °C	CCOC(=O)C1=Cc2cccc(NS(=O)(=O)N(C)C)c2OCC1
97 °C	CC(C)c1ccc(S(=O)(=O)n2c(C(O)c3cccc(C(=O)O)c3)cc3cc(Cl)ccc32)cc1 (configuration not stated)
231 to 233 °C	CC12CCC(O)CC1=CCC1C2CCC2(C)C(c3cncnc3)=CCC12 (configuration not stated)
145 to 146 °C	CCC(O)(c1cccc(O)c1)c1nccs1 (configuration not stated)
> 310 °C	O=C1Cc2cc(C3=NNC(=O)SC3)ccc2N1
218 to 220 °C	O=C(NCc1ccc(Cl)cc1)c1cnc2cc(C#CCO)ccc2c1O
155 to 156 °C	COc1cc(COc2nn(C)cc2C=O)ccc1OCc1nc(-c2ccco2)oc1C
228 to 234 °C	COc1cc2ncnc(NC3=CC(=O)C(Oc4ccccc4)=CC3=O)c2cc1OC
156 °C	Nc1ccc2oc(-c3ccccc3)cc2c1

SMILES	melting point
COc1ccc2[nH]nc(N3CCN(C)CC3)c2c1	158 to 160 °C
CC(=O)c1sccc1CBr	62 to 64 °C
[N-]=[N+]=Nc1cc(=O)oc2ccccc12	159 to 160 °C
